Assay results from US20240398781A1, “SPIROCYCLIC CYCLIC MODULATORS OF CHOLESTEROL BIOSYNTHESIS AND THEIR USE FOR PROMOTING REMYELINATION” (GENENTECH, INC., priority 2021, published 2024).

Tests used:
[1] = target: human emopamil binding protein and human 7-dehydrocholesterol reductase co-expressing cells (hEBP-DHCR7 membrane) (Homo sapiens (Human), UniProt Q15125); assay: Radioligand filter binding assay on hEBP-DHCR7 membrane; conditions: [3H]-(S)-6-(2-Methyl-3-(6-(trifluoromethyl)pyridin-3-yl)propyl)-2-thia-6-azaspiro[3.4]octane 2,2-dioxide radioligand, HEK293 membrane co-expressing hEBP and hDHCR7
human emopamil binding protein and human 7-dehydrocholesterol reductase co-expressing cells (hEBP-DHCR7 membrane), sequence (Q15125 whole entry): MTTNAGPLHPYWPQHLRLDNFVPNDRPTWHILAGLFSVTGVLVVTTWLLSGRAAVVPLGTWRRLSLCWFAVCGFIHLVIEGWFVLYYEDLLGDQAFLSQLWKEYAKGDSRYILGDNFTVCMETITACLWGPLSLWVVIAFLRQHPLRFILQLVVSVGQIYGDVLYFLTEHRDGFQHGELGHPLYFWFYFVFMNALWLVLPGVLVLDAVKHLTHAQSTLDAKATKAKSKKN
Protocol: Membrane Preparation: human emopamil binding protein and human 7-dehydrocholesterol reductase co-expressing cells were generated by transient transfecting host human embryonic kidney (HEK) 293 cells with 2 DNA constructs containing each protein's coding sequence. Cells were suspension cultured at 37° C. with 5% CO2 in […] 293 Expression Medium (Thermofisher). Whole cell membrane was prepared by harvesting the cell pellet, adding cold membrane buffer (50 mM Tris, pH7.5, lx Roche COMPLETE EDTA-free protease inhibitor cocktail) 10 times volume of the cell pellets weight, lysing cell pellet on ice by using Dounce homogenizer, spinning at 200 g 4° C. for 15 min, collecting supernatant and spinning again at 25000 g 4° C. for 50 min, transferring pellet to Dounce homogenizer, re-suspending pellet by homogenizing in membrane buffer on ice to reach ˜25 mg/mL, then keeping whole cell membrane aliquots at −80° C.
Compounds were prepared in a 96-well U bottom plate using an Echo550 machine and 10 mM compound DMSO stock solution, followed by an 8-dose 5-fold serial dilutions protocol with final testing compound concentration ranging from 0.06 to 5000 nM, with DMSO back fill to 100 nL/well and n=2. […] The UniFilter-96 GF/B plates were pre-treated by adding 50 μl/well of 0.3% (v/v) PEI to UniFilter-96 GF/B plates. The plates were sealed and incubated at 4° C. for 3 hrs. Then, the plates were washed with ice-cold assay buffer 3 times. The radioligand binding assay was prepared by adding assay buffer diluted hEBP-DHCR7 membrane at 66.7 μg/ml×150 μl/well into the 96-well compound plate to reach 10 μg membrane per well. Then, the assay buffer diluted [3H]—(S)-6-(2-Methyl-3-(6-(trifluoromethyl)pyridin-3-yl)propyl)-2-thia-6-azaspiro[3.4] octane 2,2-dioxide was added at 25 nM×50 μl/well. Following this, the plate was centrifuged at 1000 rpm for 30 secs. The plate was then sealed and agitated at 600 rpm at 22° C. for 5 min, and then incubated at 22° C. for 3 hrs. The incubation was stopped by transferring the binding solution to the pre-treated UniFilter-96 GF/B plate, vacuum filtrated, and then washed four times with ice-cold assay buffer. Following this, the plates were dried at 37° C. for 45 min. The plates were then sealed at the bottom. 40 μl/well of scintillation cocktail was added to the plates. A MicroBeta2 microplate counter was then used to read the plate and analyze the data. For reference and test compounds, the results are expressed as % Inhibition, using the normalization equation: N=100−100×(U−C2)/(C1−C2), where U is the unknown value, C1 is the average of high controls, and C2 is the average value of low controls. The IC50 was determined by fitting percentage of inhibition as a function of compound concentrations with Hill equation using XLfit. Results are expressed as hEBP-DHCR7 Ki (uM) in Table 4. Ki was calculated as described above. The asterix (*) indicates an isolated isomer or isolated group of isomers, but that the stereochemistry has not been assigned.

[2] = test system: EBP (zymostenol accumulation in EpiSC-derived OPCs); assay: GC/MS-based sterol profiling, zymostenol accumulation in OPCs; assay type: cell-based, mouse; conditions: Mus musculus, 24 h, EpiSC-derived OPCs, 24 hr treatment, 8 doses from 0.15 nM to 333 nM; read-out: Zymostenol GCMS EC50
Protocol: To assess effects of treatments on OPCs, all treatments were assayed in two or more independent platings of epiblast stem cell-derived OPCs ([…]-derived OPCs were obtained using in vitro differentiation protocols and culture conditions described previously (Najm et al, 2011, Nature Methods). OPCs were expanded and frozen down in aliquots. OPCs were thawed into growth conditions for at least one passage before use in further assays. Sterols were monitored using a modified Folch wash protocol (Hubler et al, 2018, Nature). EpiSC-derived OPCs were plated at 100,000 cells per well in PO- and laminin-coated 96-well plates in N2B27 media without growth factors. After 24 hours, cells were rinsed with saline and plates were frozen. Cholesterol-d7 standard was then added to each well before drying under nitrogen stream and derivatization with 55 μl of bis(trimethylsilyl) trifluoroacetamide. After derivatization, 2 μl were analyzed by gas chromatography/mass spectrometry using an Agilent 5973 Network Mass Selective Detector equipped with a 6890 gas chromatograph system and a HP-5MS capillary column (30 m×0.25 mm×0.25 mm). Samples were analyzed in full scan mode using electron impact ionization; ion fragment peaks were integrated to calculate sterol abundance, and quantitation was relative to cholesterol-d7. […] All standards were obtained from Avanti Polar Lipids unless otherwise indicated. Calibration curves were generated by injecting varying concentrations of sterol standards and maintaining a fixed amount of cholesterol-D7. For normalized zymostenol accumulation results, the total amount of zymostenol measured after drug treatment was divided by the total amount of zymostenol accumulated after 24 hr treatment with 100 nM positive control reference.

Row | SMILES | Ki [1] [nM] | EC50 [2] [nM]
1 | CC(C)C1C[C@H](N2CCC3(C2)CS(=O)(=O)C3)CCN1c1ccc(C(F)(F)F)nc1 (stereo in doubt) [82A*, 6-((2R,4R)-2-Isopropyl-1-(6-(trifluoromethyl)pyridin-3-yl)piperidin-4-yl)-2-thia-6-azaspiro[3.4]octane 2,2-dioxide] | 89 | 280
2 | CC(C)n1nc(C(F)(F)F)cc1[C@@H]1CCC[C@@H](N2CCC3(C2)CS(=O)(=O)C3)C1 (single isomer, unassigned) [61A*] | 80 | > 330
3 | O=S1(=O)CC2(CCCN([C@H]3CC[C@H](c4ccnc(C(F)(F)F)c4)CC3)C2)C1 [Compound 93, 6-((1r,4r)-4-(2-(Trifluoromethyl)pyridin-4-yl)cyclohexyl)-2-thia-6-azaspiro[3.5]nonane 2,2-dioxide] |  | 12
4 | CC(C)c1nc(C(F)(F)F)ccc1[C@H]1CC[C@@H](N2CCC3(C2)CS(=O)(=O)C3)CC1 [Compound 65B, 6-((1s,4s)-4-(2-isopropyl-6-(trifluoromethyl)pyridin-3-yl)cyclohexyl)-2-thia-6-azaspiro[3.4]octane 2,2-dioxide] | 8 | 2.8
5 | O=S1(=O)CC2(CCN([C@H]3CC[C@H](c4ccc(C(F)(F)F)nc4)CC3)CC2)C1 [81A*, 7-((1r,4r)-4-(6-(Trifluoromethyl)pyridin-3-yl)cyclohexyl)-2-thia-7-azaspiro[3.5]nonane 2,2-dioxide] | 85 | 36
6 | CC(C)n1nc(C(F)(F)F)cc1[C@@H]1CCC[C@@H](N2CCC3(CC2)CS(=O)(=O)C3)C1 (single isomer, unassigned) [78A*] | 71 | > 330
7 | O=S1(=O)CC2(CCN([C@H]3CC[C@@H](c4cnc(C(F)(F)F)nc4)CC3)C2)C1 [Compound 94B, 6-((1s,4s)-4-(2-(trifluoromethyl)pyrimidin-5-yl)cyclohexyl)-2-thia-6-azaspiro[3.4]octane 2,2-dioxide] | 115 | 250
8 | O=S1(=O)CC2(CCN([C@H]3CC[C@@H](c4cncc(C(F)(F)F)c4)CC3)C2)C1 [Compound 63B, 6-((1s,4s)-4-(5-(trifluoromethyl)pyridin-3-yl)cyclohexyl)-2-thia-6-azaspiro[3.4]octane 2,2-dioxide] | 66 | 289
9 | O=S1(=O)CC2(CCN([C@@H]3CCCN(c4ccc(C(F)(F)F)nc4)C3)C2)C1 (single isomer, unassigned) [66A*] | 1980 | > 330
10 | CC(C)[C@@H]1C[C@@H](N2CCC3(C2)CS(=O)(=O)C3)CCN1c1ccc(C(F)(F)F)nc1 (single isomer, unassigned) [82B*] | 46 | 19
11 | CCc1nc(C(F)(F)F)ccc1[C@H]1CC[C@@H](N2CCC3(C2)CS(=O)(=O)C3)CC1 [Compound 64B, 6-((1s,4s)-4-(2-ethyl-6-(trifluoromethyl)pyridin-3-yl)cyclohexyl)-2-thia-6-azaspiro[3.4]octane 2,2-dioxide] | 12 | 3.2
12 | Cc1nc(C(F)(F)F)ccc1[C@H]1CC[C@@H](N2CCC3(C2)CS(=O)(=O)C3)CC1 [Compound 51B, 6-((1s,4s)-4-(2-methyl-6-(trifluoromethyl)pyridin-3-yl)cyclohexyl)-2-thia-6-azaspiro[3.4]octane 2,2-dioxide] | 14 | 5.9
13 | CC(C)n1nc(C(F)(F)F)cc1[C@H]1CC[C@@H](N2CCC[C@]3(CCS(=O)(=O)C3)C2)CC1 (single isomer, unassigned) [91C*] |  | 8.2
14 | O=S1(=O)CC[C@]2(CCCN([C@H]3CC[C@H](c4cc(C(F)(F)F)nn4C4CC4)CC3)C2)C1 (single isomer, unassigned) [69D*] | 50 | 58
15 | CC(C)[C@@H]1C[C@H](N2CCC3(C2)CS(=O)(=O)C3)CCN1c1ccc(C(F)(F)F)nc1 (stereo in doubt) [82D*, 6-((2S,4R)-2-isopropyl-1-(6-(trifluoromethyl)pyridin-3-yl)piperidin-4-yl)-2-thia-6-azaspiro[3.4]octane 2,2-dioxide] | 100 | > 330
16 | O=S1(=O)CC2(CCN([C@H]3CC[C@H](c4cnc(C(F)(F)F)nc4)CC3)C2)C1 [Compound 94A, 6-((1r,4r)-4-(2-(Trifluoromethyl)pyrimidin-5-yl)cyclohexyl)-2-thia-6-azaspiro[3.4]octane 2,2-dioxide] | 230 | 81
17 | CC(C)n1nc(C(F)(F)F)cc1[C@H]1CCC[C@H](N2CCC3(C2)CS(=O)(=O)C3)C1 (single isomer, unassigned) [61D*] | 344 | > 330
18 | CC(C)n1nc(-c2ccc(C(F)(F)F)cc2)nc1[C@@H]1CC[C@H](N2CCC3(C2)CS(=O)(=O)C3)C1 (single isomer, unassigned) [53C*] | 10 | 1.1
19 | O=S1(=O)CC[C@@]2(CCCN([C@H]3CC[C@H](c4ccc(C(F)(F)F)nc4)CC3)C2)C1 (single isomer, unassigned) [71B*] |  | 280
20 | CC(C)n1nc(C(F)(F)F)cc1[C@H]1CC[C@H](N2CCC[C@]3(CCS(=O)(=O)C3)C2)CC1 (single isomer, unassigned) [91D*] |  | 50
21 | O=S1(=O)CC[C@]2(CCCN([C@H]3CC[C@@H](c4ccc(C(F)(F)F)cn4)CC3)C2)C1 (single isomer, unassigned) [68C*] |  | > 330
22 | O=S1(=O)CC2(CCN([C@H]3CC[C@H](c4ccnc(C(F)(F)F)c4Cl)CC3)C2)C1 [Compound 92A, 6-((1r,4r)-4-(3-Chloro-2-(trifluoromethyl)pyridin-4-yl)cyclohexyl)-2-thia-6-azaspiro[3.4]octane 2,2-dioxide] |  | 36
23 | O=S1(=O)CC[C@]2(CCCN([C@H]3CC[C@H](c4ccc(C(F)(F)F)nc4)CC3)C2)C1 (single isomer, unassigned) [71D*] |  | > 330
24 | O=S1(=O)CC[C@]2(CCCN([C@H]3CC[C@@H](c4ccc(C(F)(F)F)nc4)CC3)C2)C1 (single isomer, unassigned) [71C*] |  | 62
25 | O=S1(=O)CC[C@]2(CCCN([C@H]3CC[C@H](c4ccc(C(F)(F)F)cn4)CC3)C2)C1 (single isomer, unassigned) [68D*] |  | 42
26 | O=S1(=O)CC[C@@]2(CCCN([C@H]3CC[C@@H](c4ccc(C(F)(F)F)cn4)CC3)C2)C1 (single isomer, unassigned) [68A*] |  | 190
27 | O=S1(=O)CC2(CCN([C@H]3CC[C@@H](c4ccnc(C(F)(F)F)c4Cl)CC3)C2)C1 [Compound 92B, 6-((1s,4s)-4-(3-chloro-2-(trifluoromethyl)pyridin-4-yl)cyclohexyl)-2-thia-6-azaspiro[3.4]octane 2,2-dioxide] |  | 5.2
